Data on four compounds can be found in article PMC7414031, “Correlation between hemolytic activity, cytotoxicity and systemic in vivo toxicity of synthetic antimicrobial peptides” (Scientific Reports, 2020).

SMILES strings stand for the structures. pIC50: −log10 of the molar value. Converted amounts (≈) assume the structure as drawn. Peptide text beside a SMILES is read from it. A value given as a limit tells only on which side of the number the result lay.

Data set [1] can be described thus: in vitro. The format is cell-based, human. The conditions noted are these: human. The gist of the method: (§1)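 Washed heparinized erythrocytes (~5 × 10^8 RBC/mL in PBS) incubated 1 h at 37 °C with peptides in serial 1:1 dilutions (150 to 1.2 µM final). Haemoglobin release read at 405 nm in supernatant; % haemolysis relative to 1% Triton X-100 (100%) and PBS diluent (0%).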

Data set [2] has as its system human erythrocytes. The data set is described as follows: in vitro. The format is cell-based. Particulars: for IC10 haemolysis: human erythrocytes; for pIC50: red cells of human. The essentials: as §1
For data set [3], the system named is Staphylococcus aureus. Also on record: method as in PMID 30842436. Particulars: cited from earlier work.
Data set [4] relates to human erythrocytes. Particulars: cited from earlier work.
A short description of data set [5]: in vitro. Type of data set: cell-based, bovine. Particulars: bovine. The essentials:
as §1

The subject of data set [6] is bovine erythrocytes. As to the kind of experiment: in vitro. The format is cell-based. Particulars: bovine erythrocytes. The gist of the method: as §1
A short description of data set [7]: in vitro. Particulars: dog. Type of data set: cell-based, dog. The gist of the method:
as §1

The test system of data set [8] is canine erythrocytes. The data set is described as follows: in vitro. Type of data set: cell-based, dog. Particulars: for IC10 haemolysis: canine erythrocytes; for pIC50: red cells of canine. The gist of the method: as §1
Data set [9] deals with Pseudomonas aeruginosa. Also on record: method as in PMID 30842436. The conditions noted are these: cited from earlier work.
The test system of data set [10] is Staphylococcus pseudintermedius. Particulars: cited from earlier work.
The nature of data set [11]: in vitro. The format is cell-based, rat (Sprague–Dawley). Particulars: Sprague-Dawley, rat. The essentials:
as §1

Data set [12] concerns rat erythrocytes. The data set is described as follows: in vitro. The format is cell-based, rat (Sprague–Dawley). The conditions noted are these: for IC10 haemolysis: rat erythrocytes; for pIC50: red cells of rat. The gist of the method: as §1

Take `CC(C)C[C@H](NC(=O)[C@H](CCCCN)NC(=O)[C@H](CCCCN)NC(=O)[C@@H](N)CCCCN)C(=O)N[C@@H](Cc1cccc2ccccc12)C(=O)N[C@@H](Cc1ccccc1)C(=O)N[C@@H](Cc1cccc2ccccc12)C(N)=O` [Compound 7, Lys-Lys-Lys-Leu-(1-Nal)Ala-Phe(1-Nal)Ala] (HELM PEPTIDE1{K.K.K.L.[O=C([C@H](Cc1cccc2ccccc12)N[*:1])[*:2]].F.[O=C([C@H](Cc1cccc2ccccc12)N[*:1])[*:2]].[am]}$$$$V2.0): the hemolysis at 1 h, 150 µM was 83.8% in [1], 16% in data set [5], 102% in [7] and 54.3% in [11]. Further, the “Haemolysis at 80 µM (in words)” value in data set [2], in [8] and in [12] was “near total haemolysis” throughout. The IC10 haemolysis came out at 35.2 µM in [2], 118.8 µM in data set [6], 32.7 µM in data set [8] and 76.9 µM in data set [12]. In addition, the pIC50 in [2] is 4.08; in [8], 4.33; in data set [12], 3.84. For the same compound, the “MIC against Staphylococcus aureus” value in data set [3] is recorded as 16 µg/mL (≈ 15.1 µM). Further, the “Previously reported haemolytic activity against human erythrocytes (in words)” value (“Previously reported haemolytic activity” for short) in data set [4] is listed as “high in vitro haemolytic activity”. For the same compound, the “MIC against Pseudomonas aeruginosa” value in data set [9] was 16 µg/mL (≈ 15.1 µM). Further, the “MIC against Staphylococcus pseudintermedius” value in data set [10] is 8 µg/mL (≈ 7.57 µM).
Turning to `CC(C)C[C@@H](NC(=O)[C@H](CCCCN)NC(=O)[C@@H](Cc1cccc2ccccc12)NC(=O)[C@@H](Cc1ccccc1)NC(=O)[C@H](N)Cc1cccc2ccccc12)C(=O)N[C@@H](CCCCN)C(=O)N[C@@H](CCCCN)C(N)=O` [Compound 8, (1-Nal)Ala-Phe-(1-Nal)Ala-Lys-Leu-Lys-Lys] (HELM PEPTIDE1{[N[C@H](Cc1cccc2ccccc12)C(=O)[*:2]].[dF].[O=C([C@@H](Cc1cccc2ccccc12)N[*:1])[*:2]].K.[dL].K.K.[am]}$$$$V2.0), the hemolysis at 1 h, 150 µM in data set [1] is 34.3%; in [5], < 8%; in [7], 25.8%; in data set [11], < 8%. Also, the IC10 haemolysis in data set [2] was 57.0 µM; in data set [8] it was 66.0 µM; in data set [12], > 150 µM. In addition, the pIC50 in data set [2], in [8] and in [12] was < 3.82 in each case. The “MIC against Staphylococcus aureus” value in data set [3] is 32 to 64 µg/mL. The “Previously reported haemolytic activity” value in data set [4] is reported as “no haemolytic activity”. Besides, the “MIC against Pseudomonas aeruginosa” value in data set [9] is > 64 µg/mL. Further, in data set [10], the “MIC against Staphylococcus pseudintermedius” value is given as 16 µg/mL (≈ 15.1 µM).
For the compound `CC(C)C[C@@H](NC(=O)[C@@H](Cc1cccc2ccccc12)NC(=O)[C@@H](Cc1ccccc1)NC(=O)[C@H](N)Cc1cccc2ccccc12)C(=O)N[C@@H](CCCCN)C(=O)N[C@@H](CCCCN)C(=O)N[C@@H](CCCCN)C(N)=O` [Compound 9, (1-Nal)Ala-Phe-(1-Nal)Ala-Leu-Lys-Lys-Lys] (HELM PEPTIDE1{[N[C@H](Cc1cccc2ccccc12)C(=O)[*:2]].[dF].[O=C([C@@H](Cc1cccc2ccccc12)N[*:1])[*:2]].[dL].K.K.K.[am]}$$$$V2.0), the hemolysis at 1 h, 150 µM in [1] was 30.8%; in [5], < 8%; in data set [7], 25.5%; in data set [11] it was < 8%. For the same compound, the IC10 haemolysis in data set [2] is given as 104.1 µM; in data set [8] it was 65.0 µM; in [12], > 150 µM. In addition, the pIC50 in data set [2], in [8] and in [12] was < 3.82 in each case. Moreover, in data set [3], the “MIC against Staphylococcus aureus” value was 32 µg/mL (≈ 30.3 µM). Moreover, in data set [4], the “Previously reported haemolytic activity” value is recorded as “no haemolytic activity”. In addition, in data set [9], the “MIC against Pseudomonas aeruginosa” value is on record as 32 µg/mL (≈ 30.3 µM). Moreover, the “MIC against Staphylococcus pseudintermedius” value in data set [10] is recorded as 16 µg/mL (≈ 15.1 µM).
Consider `CC(C)C[C@H](NC(=O)[C@H](CCCCN)NC(=O)[C@@H](N)CCCCN)C(=O)N[C@@H](CCCCN)C(=O)N[C@@H](Cc1cccc2ccccc12)C(=O)N[C@@H](Cc1ccccc1)C(=O)N[C@@H](Cc1cccc2ccccc12)C(N)=O` [Compound 6, Lys-Lys-Leu-Lys-(1-Nal)Ala-Phe-(1-Nal)Ala] (HELM PEPTIDE1{K.K.L.K.[O=C([C@H](Cc1cccc2ccccc12)N[*:1])[*:2]].F.[O=C([C@H](Cc1cccc2ccccc12)N[*:1])[*:2]].[am]}$$$$V2.0; N-terminus assumed), for which the hemolysis at 1 h, 150 µM is 42.7% in data set [1], 39.9% in [5], 101% in data set [7] and 18.2% in data set [11]. In addition, the IC10 haemolysis turned out to be 55.6 µM in data set [2], 23.6 µM in data set [6], 12.2 µM in [8] and 120.5 µM in [12]. Besides, the figures for the pIC50 in data set [2], in data set [8] and in [12] were < 3.82, 4.43 and < 3.82, respectively. Also, the “MIC against Staphylococcus aureus” value in data set [3] is given as 32 µg/mL (≈ 30.3 µM). Further, in data set [4], the “Previously reported haemolytic activity” value is recorded as “high in vitro haemolytic activity”. Further, the “MIC against Pseudomonas aeruginosa” value in data set [9] is given as 8 µg/mL (≈ 7.57 µM). Moreover, the “MIC against Staphylococcus pseudintermedius” value in data set [10] is 8 µg/mL (≈ 7.57 µM).

For orientation: pIC50 means the negative decadic logarithm of the IC50, by convention in mol/L. Low values mean a high IC50, high ones a low IC50.
